Laboratory results: patent US8828474B2, “Apparatus and methods for loading a drug eluting medical device” (Medtronic Vascular, Inc., priority 2009, dated 2014)

Test: Solubility of sirolimus in solvents / dispersion media
Format: physicochemical
Description: Solution 524 is a homogeneous mixture in which therapeutic substance 112 dissolves within a solvent or a solvent mixture. In one embodiment, solution 524 includes a high-capacity solvent 528 which is an organic solvent that has a high capacity to dissolve therapeutic substance 112. High capacity as utilized herein is defined as an ability to dissolve therapeutic substance 112 at concentrations greater than 500 mg of substance per milliliter of solvent. Examples of high capacity drug dissolving solvents for sirolimus and similar substances include but are not limited to tetrahydrofuran (THF), di-chloromethane (DCM), chloroform, and di-methyl-sulfoxide (DMSO). In addition to the high-capacity solvent, solution 524 may include an excipient 526 in order to assist in drug elution. In one embodiment, excipient 526 may be a surfactant such as but not limited to sorbitan fatty acid esters such as sorbitan monooleate and sorbitan monolaurate, polysorbates such as polysorbate 20, polysorbate 60, and polysorbate 80, cyclodextrins such as 2-hydroxypropyl-beta-cyclodextrin and 2,6-di-O-methyl-beta-cyclodextrin, sodium dodecyl sulfate, octyl glucoside, and low molecular weight poly(ethylene glycol)s. In another embodiment, excipient 526 may be a hydrophilic agent such as but not limited to salts such as sodium chloride and other materials such as urea, citric acid, and ascorbic acid. […]

solubility in hexane: insoluble
SMILES: CO[C@H]1C[C@@H]2CC[C@@H](C)[C@@](O)(O2)C(=O)C(=O)N2CCCC[C@H]2C(=O)O[C@H]([C@H](C)C[C@@H]2CC[C@@H](O)[C@H](OC)C2)CC(=O)[C@H](C)/C=C(\C)[C@@H](O)[C@@H](OC)C(=O)[C@H](C)C[C@H](C)/C=C/C=C/C=C/1C [sirolimus]
